Measurements: US12622910B2, “Inhibitors of Bruton's tyrosine kinase and methods of their use” (Janssen Pharmaceutica NV, priority 2021, dated 2026)
Where two headings read alike, the source gives them in different places. Marks after values point to notes of the source that are not given here.

Experiment: Phase 1 first-in-human study, plasma pharmacokinetics
Format: in vivo
Details: for half-life / Tmax / AUC(0-inf) / Cmax / AUC(0-t): male, human, plasma, po
Procedure: Safety, tolerability, PK, and BTKO were assessed for six doses of compound of Formula (III) oral solution (4, 12, 36, 100, 200, 400 mg) in participants under fasted conditions. The SAD part comprised 10 cohorts of 8 participants each (FIG. 1). In each cohort receiving compound of Formula (III) oral solution (Cohorts 1-9), 6 participants were randomized to receive compound of Formula (III) and 2 to receive placebo. All participants in Cohort 10 received compound of Formula (III) as an oral capsule. All 10 cohorts included 2 sentinel participants who were dosed ˜24 hours prior to the rest of the cohort. In cohorts receiving compound of Formula (III) oral solution, 1 sentinel participant received compound of Formula (III) and the other received placebo.
Six male escalating dose cohorts received a single oral dose of 4, 12, 36, 100, 200, 400 mg compound of Formula (III) or placebo solution under fasted conditions. Gender effects were assessed in 2 female cohorts whose participants received either a 36 or 100 mg dose of compound of Formula (III) or placebo as an oral solution under fasted conditions. Food effects were evaluated in a male cohort receiving compound of Formula (III) 100 mg or placebo as an oral solution after a high-fat breakfast.
Safety, tolerability, and PK of a solid dose formulation of compound of Formula (III) were assessed in an additional male cohort (Cohort 10) that received 3×35 mg (105 mg) of compound of Formula (III) in the fasted state. Since all the participants received the same dose of compound of Formula (III), this cohort was not blinded.
Safety, tolerability, PK, and BTKO following multiple compound of Formula (III) doses were evaluated in 3 dose escalation cohorts with a total of 18 participants (males: 9, females: 9) receiving active study drug. In each cohort, 3 males and 3 females were randomized to receive 36 mg once-daily (QD), 100 mg QD, or 200 mg QD compound of Formula (III) oral solution and 3 participants (males: 2; female: 1) to receive placebo. Two male participants in each cohort served as sentinel participants: one received compound of Formula (III) and other received placebo ˜48 hours prior to other participants in the cohort. All safety and tolerability data (through the follow-up visit), PK data (through at least 24 hours after last dose administration), and all available PD data were reviewed from each cohort before a decision was made to dose escalate.
Sample collection—For the PK assessment of compound of Formula (III), venous blood samples (2 to 4 mL each) were collected predose and at 15 min, 0.5, 1, 1.5, 2, 2.5, 3, 4, 6, 8, 12, 24, 36, 48, and 72 hours post-dose in Part 1. In Part 2, samples were collected predose and at 15 min, 0.5, 1, 1.5, 2, 2.5, 3, 4, 6, 8, 12 hours post-dose on day 1, predose and 1 hour post-dose on days 2-9, and predose and at 15 min, 0.5, 1, 1.5, 2, 2.5, 3, 4, 6, 8, 12, 24, 48, and 72 hours after the last dose on day 10. Plasma samples were analyzed to determine concentrations of compound of Formula (III) using a scientific validated, specific, and sensitive liquid chromatography-mass spectrometry (LC-MS/MS) method.
The PK analysis for the compound of Formula (III) samples was performed using a non-compartmental method with validated Phoenix® WinNonlin® (version 8.0, Certara L.P.).

[1] = 36 mg, single 36 mg oral solution, male fasted
[2] = 100 mg, single 100 mg oral solution, male fasted
[3] = 100 mg, single 100 mg oral solution, male fed (high-fat breakfast)
[4] = 105 mg, single 105 mg (3 × 35 mg) oral capsule, male fasted
[5] = 200 mg, single 200 mg oral solution, male fasted
[6] = 400 mg, single 400 mg oral solution, male fasted
[7] = single 12 mg oral solution, male fasted
[8] = single 100 mg oral solution, female fasted

SMILES: C=CC(=O)N[C@H]1CCC[C@H]1NC(=O)c1sc2nccc3c2c1NC(=O)N3c1cnc(CC(C)C)cc1C (atropisomer, axis not shown) [compound of Formula (III), N-((1R,2S)-2-Acrylamidocyclopentyl)-5-(S)-(6-isobutyl-4-methylpyridin-3-yl)-4-oxo-4,5-dihydro-3H-1-thia-3,5,8-triazaacenaphthylene-2-carboxamide]
- half-life (12 mg, single 12 mg oral solution, male fasted, read-out: t1/2, λz (converted)): 1.6 h
- Tmax (12 mg, single 12 mg oral solution, male fasted, read-out: tmax, median (min-max)): 1 h
- AUC(0-inf) [1]: 644 ng·h/mL
- Cmax [1]: 200 ng/mL
- AUC(0-t) (36 mg, single 36 mg oral solution, male fasted, read-out: AUC0-24 h): 649 ng·h/mL
- AUC(0-t) (36 mg, single 36 mg oral solution, male fasted, read-out: AUClast): 649 ng·h/mL
- half-life (36 mg, single 36 mg oral solution, male fasted, read-out: t1/2, dom (converted)): 1.6 h
- half-life (36 mg, single 36 mg oral solution, male fasted, read-out: t1/2, λz (converted)): 2.1 h
- Tmax (36 mg, single 36 mg oral solution, male fasted, read-out: tmax, median (min-max)): 1 h
- AUC(0-inf) [2]: 20.6 ng·h/mL
- Cmax [2]: 923 ng/mL
- AUC(0-t) (100 mg, single 100 mg oral solution, male fasted, read-out: AUC0-24 h): 2140 ng·h/mL
- AUC(0-t) (100 mg, single 100 mg oral solution, male fasted, read-out: AUClast): 2140 ng·h/mL
- half-life (100 mg, single 100 mg oral solution, male fasted, read-out: t1/2, dom (converted)): 1.9 h
- half-life (100 mg, single 100 mg oral solution, male fasted, read-out: t1/2, λz (converted)): 5 h
- Tmax (100 mg, single 100 mg oral solution, male fasted, read-out: tmax, median (min-max)): 0.5 h
- AUC(0-inf) [3]: 1760 ng·h/mL
- Cmax [3]: 277 ng/mL
- AUC(0-t) (100 mg, single 100 mg oral solution, male fed (high-fat breakfast), read-out: AUC0-24 h): 1720 ng·h/mL
- AUC(0-t) (100 mg, single 100 mg oral solution, male fed (high-fat breakfast), read-out: AUClast): 1750 ng·h/mL
- half-life (100 mg, single 100 mg oral solution, male fed (high-fat breakfast), read-out: t1/2, dom (converted)): 2 h
- half-life (100 mg, single 100 mg oral solution, male fed (high-fat breakfast), read-out: t1/2, λz (converted)): 10.8 h
- Tmax (100 mg, single 100 mg oral solution, male fed (high-fat breakfast), read-out: tmax, median (min-max)): 2.5 h
- AUC(0-inf) [4]: 1500 ng·h/mL
- Cmax [4]: 345 ng/mL
- AUC(0-t) (105 mg, single 105 mg (3 × 35 mg) oral capsule, male fasted, read-out: AUC0-24 h): 1320 ng·h/mL
- AUC(0-t) (105 mg, single 105 mg (3 × 35 mg) oral capsule, male fasted, read-out: AUClast): 1450 ng·h/mL
- half-life (105 mg, single 105 mg (3 × 35 mg) oral capsule, male fasted, read-out: t1/2, dom (converted)): 1.9 h
- half-life (105 mg, single 105 mg (3 × 35 mg) oral capsule, male fasted, read-out: t1/2, λz (converted)): 14.2 h
- Tmax (105 mg, single 105 mg (3 × 35 mg) oral capsule, male fasted, read-out: tmax, median (min-max)): 1.5 h
- AUC(0-inf) [5]: 2780 ng·h/mL
- Cmax [5]: 1210 ng/mL
- AUC(0-t) (200 mg, single 200 mg oral solution, male fasted, read-out: AUC0-24 h): 2750 ng·h/mL
- AUC(0-t) (200 mg, single 200 mg oral solution, male fasted, read-out: AUClast): 277 ng·h/mL
- half-life (200 mg, single 200 mg oral solution, male fasted, read-out: t1/2, dom (converted)): 1.8 h
- half-life (200 mg, single 200 mg oral solution, male fasted, read-out: t1/2, λz (converted)): 12.9 h
- Tmax (200 mg, single 200 mg oral solution, male fasted, read-out: tmax, median (min-max)): 1 h
- AUC(0-inf) [6]: 4200 ng·h/mL
- Cmax [6]: 1920 ng/mL
- AUC(0-t) (400 mg, single 400 mg oral solution, male fasted, read-out: AUC0-24 h): 3700 ng·h/mL
- AUC(0-t) (400 mg, single 400 mg oral solution, male fasted, read-out: AUClast): 3830 ng·h/mL
- half-life (400 mg, single 400 mg oral solution, male fasted, read-out: t1/2, dom (converted)): 2.2 h
- half-life (400 mg, single 400 mg oral solution, male fasted, read-out: t1/2, λz (converted)): 13.2 h
- Tmax (400 mg, single 400 mg oral solution, male fasted, read-out: tmax, median (min-max)): 0.75 h
- half-life (single 4 to 400 mg oral solution, male fasted, read-out: mean t1/2, dom across doses): 1.5 to 2.2 h
- half-life (single 4 to 400 mg oral solution, male fasted, read-out: mean t1/2, λz across doses): 1.6 to 13.2 h
- Tmax (single 4 to 400 mg oral solution, male fasted, read-out: median tmax across doses): 0.5 to 1 h
- AUC∞/Dose (single 4 mg oral solution, male fasted): 38.9 (12.5) h · ng/mL/mg
- AUC∞/Dose [7]: 26.4 (9.07) h · ng/mL/mg
- Cmax/Dose [7]: 7.33 ng/mL
- mean Cmax and AUCs, females higher than males by (single 36 mg fasted): 17-27%
- AUC∞/Dose (single 36 mg oral solution, female fasted): 1.9 (0.5) h · ng/mL/mg
- AUC∞/Dose (single 36 mg oral solution, male fasted): 17.9 (6.64) h · ng/mL/mg
- mean Cmax and AUCs, females lower than males by (single 100 mg fasted): 30-35%
- AUC∞/Dose [8]: 13.4 (4.60) h · ng/mL/mg
- t1/2, λz [8]: 11.67 (7.8)^c h
- AUC∞/Dose (single 100 mg oral solution, male fasted): 20.6 (7.60) h · ng/mL/mg
- AUC∞/Dose (single 100 mg oral solution, male fed (high-fat breakfast)): 17.6 (4.20) h · ng/mL/mg
- Cmax lowered by high-fat meal (single 100 mg, fed vs fasted): approximately 70%
- AUC∞/Dose (single 105 mg (3 × 35 mg) oral capsule, male fasted): 14.3 (7.59) h · ng/mL/mg
- AUC∞/Dose (single 200 mg oral solution, male fasted): 13.9 (3.80) h · ng/mL/mg
- AUC∞/Dose (single 400 mg oral solution, male fasted): 9.11 (4.68) h · ng/mL/mg
